Experimental data reported in PubChem BioAssay AID270 (DTP/NCI, 2004).
Several values for one entry are separate records, joined by “and”; a condition that tells them apart may be missing. Identical values can stand only once. Records with an inconclusive call do not appear.

Test system: BDF1 mice, s.c. Lewis lung carcinoma, T/C %
Experiment: NCI In Vivo Anticancer Drug Screen. Data for tumor model Lewis Lung Carcinoma (subcutaneous) in B6D2F1 (BDF1) mice
Method in brief: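 First, mice carry a transplantable tumor. Next, groups receive either compound or vehicle. Finally, survival or tumor dimensions in the dosed animals are divided by the corresponding control figure.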

[1] = endpoint: median survival time, dose: 25.0 mg/kg/injection, schedule: Q01DX009 (ip), vehicle: saline with Tween-80, higher = longer survival
[2] = endpoint: median survival time, dose: 50.0 mg/kg/injection, schedule: Q01DX009 (ip), vehicle: saline with Tween-80, higher = longer survival
[3] = endpoint: median survival time, dose: 100.0 mg/kg/injection, schedule: Q01DX009 (ip), vehicle: saline with Tween-80, higher = longer survival
[4] = endpoint: median survival time, dose: 200.0 mg/kg/injection, schedule: Q01DX009 (ip), vehicle: saline with Tween-80, higher = longer survival

Compound: N/C(=N\Cl)C(Cl)(Cl)Cl
- T/C (endpoint: median survival time, dose: 6.25 mg/kg/injection, schedule: Q01DX009 (ip), vehicle: other, higher = longer survival): 101 % of control
- T/C (endpoint: median survival time, dose: 12.5 mg/kg/injection, schedule: Q01DX009 (ip), vehicle: other, higher = longer survival): 110 % of control
- T/C (endpoint: median survival time, dose: 25.0 mg/kg/injection, schedule: Q01DX009 (ip), vehicle: other, higher = longer survival): 100 % of control
- T/C (endpoint: median survival time, dose: 50.0 mg/kg/injection, schedule: Q01DX009 (ip), vehicle: other, higher = longer survival): 96 % of control

Compound: Nc1nc(SCc2ccccc2Cl)c2[nH]cnc2n1
- T/C (endpoint: mean tumor weight, dose: 3.8 mg/kg/injection, schedule: Q01DX011 (ip), vehicle: other, higher = larger tumour): 82 % of control
- T/C (endpoint: mean tumor weight, dose: 7.5 mg/kg/injection, schedule: Q01DX011 (ip), vehicle: other, higher = larger tumour): 38 % of control
- T/C (endpoint: mean tumor weight, dose: 15.0 mg/kg/injection, schedule: Q01DX011 (ip), vehicle: other, higher = larger tumour): 99 % of control
- T/C (endpoint: mean tumor weight, dose: 60.0 mg/kg/injection, schedule: Q01DX011 (ip), vehicle: other, higher = larger tumour): 29 % of control
- T/C (endpoint: mean tumor weight, dose: 120.0 mg/kg/injection, schedule: Q01DX011 (ip), vehicle: other, higher = larger tumour): 11 % of control

Compound: CCN(CC)c1nc(N(CC)CC)nc(N(CC)CC)n1
- T/C [1]: 95 % of control
- T/C [2]: 105 % of control
- T/C [3]: 95 % of control
- T/C [4]: 104 % of control
- T/C (endpoint: median survival time, dose: 400.0 mg/kg/injection, schedule: Q01DX009 (ip), vehicle: saline with Tween-80, higher = longer survival): 89 % of control

Compound: CCOC(=O)C1C(=O)C(CN(CCCl)CCCl)C(=O)C(C(=O)OCC)C1c1ccc(O)cc1 (stereo unspecified)
- T/C (endpoint: median survival time, dose: 3.12 mg/kg/injection, schedule: Q01DX009 (ip), vehicle: Klucel (hydroxypropylcellulose) (HPC), higher = longer survival): 94 % of control
- T/C (endpoint: median survival time, dose: 6.25 mg/kg/injection, schedule: Q01DX009 (ip), vehicle: Klucel (hydroxypropylcellulose) (HPC), higher = longer survival): 98 % of control
- T/C (endpoint: median survival time, dose: 12.5 mg/kg/injection, schedule: Q01DX009 (ip), vehicle: Klucel (hydroxypropylcellulose) (HPC), higher = longer survival): 100 % of control
- T/C (endpoint: median survival time, dose: 25.0 mg/kg/injection, schedule: Q01DX009 (ip), vehicle: Klucel (hydroxypropylcellulose) (HPC), higher = longer survival): 94 % of control

Compound: CC(=O)N(C)C(C(=O)N1CC(C)CC1C(=O)N(C)C1C(=O)NC(CC(C)C)C(=O)N2CC(C)CC2C(=O)NC(CC(C)C)C(=O)N(C)C(C(C)C)C(=O)N2CCCC2C(=O)N(C)C(CC(C)C)C(=O)NCC(=O)OC1C)C(C)C (stereo unspecified)
- T/C (endpoint: median survival time, dose: 9.4 mg/kg/injection, schedule: Q01DX009 (ip), vehicle: Klucel (hydroxypropylcellulose) (HPC), higher = longer survival): 94 % of control
- T/C (endpoint: median survival time, dose: 18.75 mg/kg/injection, schedule: Q01DX009 (ip), vehicle: Klucel (hydroxypropylcellulose) (HPC), higher = longer survival): 98 % of control
- T/C (endpoint: median survival time, dose: 37.5 mg/kg/injection, schedule: Q01DX009 (ip), vehicle: Klucel (hydroxypropylcellulose) (HPC), higher = longer survival): 96 % of control

Compound: COc1cc2c(c(OC)c1OC)-c1cc3c(cc1[C@@H](OC(C)=O)[C@@H]1COC(=O)[C@H]1C2)OCO3
- T/C (endpoint: median survival time, dose: 2.5 mg/kg/injection, schedule: Q01DX009 (ip), vehicle: Klucel (hydroxypropylcellulose) (HPC), higher = longer survival): 94 % of control
- T/C (endpoint: median survival time, dose: 5.0 mg/kg/injection, schedule: Q01DX009 (ip), vehicle: Klucel (hydroxypropylcellulose) (HPC), higher = longer survival): 97 % of control
- T/C (endpoint: median survival time, dose: 10.0 mg/kg/injection, schedule: Q01DX009 (ip), vehicle: Klucel (hydroxypropylcellulose) (HPC), higher = longer survival): 95 % of control

Compound: CC(=O)OC1CC(OC2C(O)CC(OC3C(O)CC(OC4CCC5(C)C(CCC6C5CCC5(C)C(C7=CC(=O)OC7)CCC65O)C4)OC3C)OC2C)OC(C)C1OC1OC(CO)C(O)C(O)C1O (stereo unspecified)
- T/C (endpoint: mean tumor weight, dose: 1.2 mg/kg/injection, schedule: Q01DX011 (ip), vehicle: carboxymethylcellulose (CMC), higher = larger tumour): 55 % of control
- T/C (endpoint: mean tumor weight, dose: 2.5 mg/kg/injection, schedule: Q01DX011 (ip), vehicle: carboxymethylcellulose (CMC), higher = larger tumour): 60 % of control
- T/C (endpoint: mean tumor weight, dose: 5.0 mg/kg/injection, schedule: Q01DX011 (ip), vehicle: carboxymethylcellulose (CMC), higher = larger tumour): 32 % of control

Compound: C=CCNc1ccc(C)cc1
- T/C (endpoint: mean tumor weight, dose: 12.5 mg/kg/injection, schedule: Q01DX011 (ip), vehicle: carboxymethylcellulose (CMC), higher = larger tumour): 92 % of control
- T/C (endpoint: mean tumor weight, dose: 25.0 mg/kg/injection, schedule: Q01DX011 (ip), vehicle: carboxymethylcellulose (CMC), higher = larger tumour): 93 % of control
- T/C (endpoint: mean tumor weight, dose: 50.0 mg/kg/injection, schedule: Q01DX011 (ip), vehicle: carboxymethylcellulose (CMC), higher = larger tumour): 37 % of control
- T/C (endpoint: mean tumor weight, dose: 100.0 mg/kg/injection, schedule: Q01DX011 (ip), vehicle: carboxymethylcellulose (CMC), higher = larger tumour): 5 % of control

Compound: N=C(N)c1ccc(OCCCOc2ccc(C(=N)N)cc2Br)c(Br)c1
- T/C (endpoint: median survival time, dose: 6.25 mg/kg/injection, schedule: Q01DX009 (ip), vehicle: saline, higher = longer survival): 122 % of control

Compound: O=c1[nH]cnc2nc[nH]c12
- T/C (endpoint: mean tumor weight, dose: 62.5 mg/kg/injection, schedule: Q01DX011 (ip), vehicle: saline, higher = larger tumour): 121 % of control
- T/C (endpoint: mean tumor weight, dose: 125.0 mg/kg/injection, schedule: Q01DX011 (ip), vehicle: saline, higher = larger tumour): 108 % of control
- T/C (endpoint: mean tumor weight, dose: 250.0 mg/kg/injection, schedule: Q01DX011 (ip), vehicle: saline, higher = larger tumour): 107 % of control
- T/C (endpoint: mean tumor weight, dose: 500.0 mg/kg/injection, schedule: Q01DX011 (ip), vehicle: saline, higher = larger tumour): 76 % of control

Compound: COc1ccc2c(c1)CC[C@@H]1[C@@H]2CC[C@]2(C)/C(=N\O)CC[C@@H]12
- T/C (endpoint: mean tumor weight, dose: 50.0 mg/kg/injection, schedule: Q01DX011 (sc), vehicle: steriod suspending solution, higher = larger tumour): 43 % of control
- T/C (endpoint: mean tumor weight, dose: 115.0 mg/kg/injection, schedule: Q01DX011 (sc), vehicle: steriod suspending solution, higher = larger tumour): 53 % of control
- T/C (endpoint: mean tumor weight, dose: 170.0 mg/kg/injection, schedule: Q01DX011 (sc), vehicle: steriod suspending solution, higher = larger tumour): 45 % of control
- T/C (endpoint: mean tumor weight, dose: 200.0 mg/kg/injection, schedule: Q01DX011 (sc), vehicle: steriod suspending solution, higher = larger tumour): 53 % of control
- T/C (endpoint: mean tumor weight, dose: 250.0 mg/kg/injection, schedule: Q01DX011 (sc), vehicle: steriod suspending solution, higher = larger tumour): 36 % of control
- T/C (endpoint: mean tumor weight, dose: 375.0 mg/kg/injection, schedule: Q01DX011 (sc), vehicle: steriod suspending solution, higher = larger tumour): 43 % of control
- T/C (endpoint: mean tumor weight, dose: 400.0 mg/kg/injection, schedule: Q01DX011 (sc), vehicle: steriod suspending solution, higher = larger tumour): 50 % of control
- T/C (endpoint: mean tumor weight, dose: 600.0 mg/kg/injection, schedule: Q01DX011 (sc), vehicle: steriod suspending solution, higher = larger tumour): 24 % of control

Compound: ClCC[N+]12CC[N+](CCCl)(CC1)C2
- T/C (endpoint: median survival time, dose: 25.0 mg/kg/injection, schedule: Q01DX009 (ip), vehicle: saline, higher = longer survival): 105 % of control
- T/C (endpoint: median survival time, dose: 50.0 mg/kg/injection, schedule: Q01DX009 (ip), vehicle: saline, higher = longer survival): 106 % of control

Compound: [Cl][Ni+2][Cl].[NH-]CCN1CC1
- T/C (endpoint: median survival time, dose: 1.56 mg/kg/injection, schedule: Q01DX009 (ip), vehicle: saline, higher = longer survival): 103 % of control and 115 % of control
- T/C (endpoint: median survival time, dose: 12.5 mg/kg/injection, schedule: Q01DX009 (ip), vehicle: saline, higher = longer survival): 100 % of control

Compound: CC(=O)NNC(=O)c1ccccc1CO
- T/C [1]: 95 % of control
- T/C [2]: 95 % of control
- T/C [3]: 98 % of control
- T/C [4]: 93 % of control

Compound: CN(C)CCOC(=O)COc1ccc(Cl)cc1
- T/C (endpoint: median survival time, dose: 200.0 mg/kg/injection, schedule: Q01DX005 (ip), vehicle: saline, higher = longer survival): 103 % of control and 116 % of control
- T/C (endpoint: median survival time, dose: 300.0 mg/kg/injection, schedule: Q01DX005 (ip), vehicle: saline, higher = longer survival): 119 % of control

Compound: CCC(CCC(C)C1CCC2C3CC=C4CC(OC(=O)CCC(=O)O)CCC4(C)C3CCC12C)C(C)C (stereo unspecified)
- T/C (endpoint: mean tumor weight, dose: 200.0 mg/kg/injection, schedule: Q01DX011 (ip), vehicle: water, higher = larger tumour): 63 % of control
- T/C (endpoint: mean tumor weight, dose: 400.0 mg/kg/injection, schedule: Q01DX011 (ip), vehicle: water, higher = larger tumour): 38 % of control
- T/C (endpoint: mean tumor weight, dose: 450.0 mg/kg/injection, schedule: Q01DX011 (ip), vehicle: water, higher = larger tumour): 59 % of control
- T/C (endpoint: mean tumor weight, dose: 600.0 mg/kg/injection, schedule: Q01DX011 (ip), vehicle: water, higher = larger tumour): 31 % of control

Compound: C/C=C(\C)C(=O)N/N=C\c1cc(Cl)cc(Cl)c1O
- T/C (endpoint: median survival time, dose: 12.5 mg/kg/injection, schedule: Q01DX009 (ip), vehicle: olive oil, sesame oil, peanut oil, higher = longer survival): 102 % of control
- T/C (endpoint: median survival time, dose: 25.0 mg/kg/injection, schedule: Q01DX009 (ip), vehicle: olive oil, sesame oil, peanut oil, higher = longer survival): 112 % of control
- T/C (endpoint: median survival time, dose: 50.0 mg/kg/injection, schedule: Q01DX009 (ip), vehicle: olive oil, sesame oil, peanut oil, higher = longer survival): 90 % of control
- T/C (endpoint: median survival time, dose: 200.0 mg/kg/injection, schedule: Q01DX009 (ip), vehicle: olive oil, sesame oil, peanut oil, higher = longer survival): 86 % of control

Compound: CC(CCc1cccc2ccccc12)(C(=O)O)C(=O)O
- T/C (endpoint: mean tumor weight, dose: 50.0 mg/kg/injection, schedule: Q01DX011 (ip), vehicle: acid diluted with saline, higher = larger tumour): 72 % of control
- T/C (endpoint: mean tumor weight, dose: 63.0 mg/kg/injection, schedule: Q01DX011 (ip), vehicle: carboxymethylcellulose (CMC), higher = larger tumour): 101 % of control
- T/C (endpoint: mean tumor weight, dose: 100.0 mg/kg/injection, schedule: Q01DX011 (ip), vehicle: acid diluted with saline, higher = larger tumour): 85 % of control
- T/C (endpoint: mean tumor weight, dose: 200.0 mg/kg/injection, schedule: Q01DX011 (ip), vehicle: acid diluted with saline, higher = larger tumour): 91 % of control
- T/C (endpoint: mean tumor weight, dose: 400.0 mg/kg/injection, schedule: Q01DX011 (ip), vehicle: acid diluted with saline, higher = larger tumour): 59 % of control

Compound: Cc1ccc(S(=O)(=O)[O][Pb]([CH3])([CH3])[CH3])cc1
- T/C (endpoint: median survival time, dose: 0.18 mg/kg/injection, schedule: Q01DX009 (ip), vehicle: saline, higher = longer survival): 98 % of control and 122 % of control
- T/C (endpoint: median survival time, dose: 0.37 mg/kg/injection, schedule: Q01DX009 (ip), vehicle: saline, higher = longer survival): 108 % of control
- T/C (endpoint: median survival time, dose: 0.75 mg/kg/injection, schedule: Q01DX009 (ip), vehicle: saline, higher = longer survival): 116 % of control
- T/C (endpoint: median survival time, dose: 1.5 mg/kg/injection, schedule: Q01DX009 (ip), vehicle: saline, higher = longer survival): 109 % of control
